Results published in patent US10988474B2, “Compounds acting at multiple prostaglandin receptors giving a general anti-inflammatory response” (ALLERGAN, INC., priority 2011, dated 2021).

What was measured:
Type in all cases: cell-based
[1] = molecular target: T1, human prostanoid EP3 receptor (Homo sapiens, UniProt P43115); assay: FLIPR Ca2+ signaling PG antagonist assay, EP3 stable cell line; conditions: HEK-293 EBNA cells, human recombinant EP3 with chimeric Gqi; standard agonist PGE2
T1 construct: expressed in transfected cells
T1 sequence (P43115 1-390): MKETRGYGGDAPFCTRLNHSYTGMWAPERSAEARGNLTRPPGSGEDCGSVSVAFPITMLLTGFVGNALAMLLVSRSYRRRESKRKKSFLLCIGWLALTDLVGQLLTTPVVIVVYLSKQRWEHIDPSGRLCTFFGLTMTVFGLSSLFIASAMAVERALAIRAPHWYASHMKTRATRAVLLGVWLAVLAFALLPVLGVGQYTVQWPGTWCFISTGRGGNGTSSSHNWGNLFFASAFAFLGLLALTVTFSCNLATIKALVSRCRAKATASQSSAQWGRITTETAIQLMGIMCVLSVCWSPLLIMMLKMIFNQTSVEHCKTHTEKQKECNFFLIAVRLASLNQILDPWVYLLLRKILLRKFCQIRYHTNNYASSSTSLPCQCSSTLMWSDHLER
Procedure: (§1) The above compounds were tested for PG antagonist activity as follows using human recombinant prostanoid receptor (DP1, EP1-4, FP, IP and TP) stable cell lines: In order to measure the response of Gs and Gi coupled prostanoid receptors as a Ca^2+ signal, chimeric G protein cDNAs were used. Stable cell lines over-expressing human prostanoid DP1, EP1-4, FP, IP, and TP receptors were established as follows:
(§2) Briefly, human prostanoid DP1, EP2, and EP4 receptor cDNAs were co-transfected with chimeric Gqs cDNA containing a haemagglutanin (HA) epitope; human prostanoid EP3 receptors were co-transfected with chimeric Gqi-HA; human EP1, FP, IP, and TP receptor cDNAs were expressed with no exogenous G-proteins. Gqs and Gqi chimeric cDNAs (Molecular Devices, Sunnyvale, Calif., U.S.A.), as well as cDNAs of prostanoid receptors, were cloned into a pCEP4 vector with a hygromycin B selection marker. Transfection into HEK-293 EBNA (Epstein-Barr virus nuclear antigen) cells was achieved by the FuGENE 6 transfection Reagent (Roche Applied Science, Indianapolis, Ind., USA). Stable transfectants were selected according to hygromycin resistance. Because Gqs and Gqi contained an HA epitope, G-protein expression was detected by Western blotting analysis using anti-mouse HA monoclonal antibody and horseradish peroxidase (HRP)-conjugated secondary antibody, while functional expression of prostanoid receptors was detected by FLIPR screening (Matias et al., 2004). These stable cell lines were validated using previously published antagonists at 10 μM against serial dilutions of standard agonists by FLIPR functional assays for Ca^2+ Signaling (as described below).
(§3) Ca^2+ signaling studies were performed using a FLIPR TETRA system (Molecular Devices, Sunnyvale, Calif., USA) in the 384-format. This is a high-throughput instrument for cell-based assays to monitor Ca^2+ signaling associated with GPCRs and ion channels. Cells were seeded at a density of 5×10^4 cells/well in BioCoat poly-D-lysine coated, black wall, clear bottom 384-well plates (BD Biosciences, Franklin lakes, NJ, USA) and allowed to attach overnight in an incubator at 37° C. The cells were then washed twice with HBSS-HEPES buffer (Hanks' balanced salt solution without bicarbonate and phenol red, 20 mM HEPES, pH 7.4) using an ELx405 Select CW Microplate Washer (BioTek, Winooski, Vt., USA). After 60 min of dye-loading in the dark using the Ca^2+-sensitive dye Fluo-4AM (Invitrogen, Carlsbad, Calif., USA), at a final concentration of 2×10^−6M, the plates were washed 4 times with HBSS-HEPES buffer to remove excess dye and leaving 50 μl of buffer in each well. The plates were then placed in the FLIPR TETRA instrument and allowed to equilibrate at 37° C. Compounds were added in a 25 μl volume to each well to give final concentrations of 0.1 μM, 0.3 μM, 1 μM, 3 μM, 10 μM, and 30 μM; or 0.067 μM, 0.1 μM, 0.2 μM, 0.3 μM, 0.67 μM, and 1 μM for cells over-expressing TP receptors. After 4.5 minutes, a 7-point serial dilution of the standard agonist for the corresponding receptor, in a 25 μl volume was injected at the final concentrations from 10^−11M to 10^−5M in 10-fold serial dilution increments for cells expressing human recombinant DP1, EP1, EP2, EP3, EP4, FP, and IP receptors. The dose range for the standard agonist for human recombinant TP receptors was from 10^−12M to 10^−6M. HBSS-HEPES buffer was used as the negative control for the standard agonists. Cells were excited with LED (light emitting diode) excitation at 470-495 nm and emission was measured through an emission filter at 515-575 nm. Assay plates were read for 3.5 minutes using the FLIPR^TETRA. The peak increase in fluorescence intensity was recorded for each well. On each plate, negative controls, dose response of positive controls, and co-treatments of antagonist-agonist for each dose were in triplicates. Standard agonists were as follows: DP=BW 245C, EP1-EP4=PGE2, FP=17-phenyl-PGF2α, IP=Cicaprost, and TP=U-46619. […]

[2] = molecular target: T2, human prostanoid IP receptor (Homo sapiens, UniProt P43119); assay: FLIPR Ca2+ signaling PG antagonist assay, IP stable cell line; conditions: HEK-293 EBNA cells, human recombinant IP, no exogenous G-protein; standard agonist Cicaprost
T2 construct: expressed in transfected cells
Summary of the method: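 HEK-293 EBNA stable lines; EP2 co-expressed with chimeric Gqs, EP1/IP/TP with no exogenous G protein. Fluo-4AM-loaded cells pretreated 4.5 min at 37 °C with compound (0.1–30 μM; TP 0.067–1 μM), then standard agonist (PGE2, cicaprost, U-46619) 10^−11–10^−5 M (TP 10^−12–10^−6 M); peak fluorescence read 3.5 min, nonlinear regression.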

[3] = molecular target: T3, human prostanoid EP2 receptor (Homo sapiens, UniProt P43116); assay: FLIPR Ca2+ signaling PG antagonist assay, EP2 stable cell line; conditions: HEK-293 EBNA cells, human recombinant EP2 with chimeric Gqs; standard agonist PGE2
T3 construct: expressed in transfected cells
Procedure: as §1, §2, §3

[4] = molecular target: T4, human prostanoid FP receptor (Homo sapiens, UniProt P43088); assay: FLIPR Ca2+ signaling PG antagonist assay, FP stable cell line; conditions: HEK-293 EBNA cells, human recombinant FP, no exogenous G-protein; standard agonist 17-phenyl-PGF2α
T4 construct: expressed in transfected cells
Summary of the method: (§4)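 Stable HEK-293 EBNA lines (DP1 with chimeric Gqs, EP3 with Gqi, EP1 and FP without exogenous G protein) were Fluo-4AM-loaded and pretreated 4.5 min at 37 °C with compound (0.1–30 μM). Agonist (BW 245C for DP1, PGE2 for EP1/EP3, 17-phenyl-PGF2α for FP) was then added at 10^−11–10^−5 M. Peak Ca2+ fluorescence was taken relative to agonist at 10^−6 M.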

[5] = molecular target: T5, human prostanoid DP1 receptor (Homo sapiens, UniProt Q13258); assay: FLIPR Ca2+ signaling PG antagonist assay, DP1 stable cell line; conditions: HEK-293 EBNA cells, human recombinant DP1 with chimeric Gqs; standard agonist BW 245C; read-out: DP (Kb, PG antagonist activity)
T5 construct: expressed in transfected cells
T5 sequence (Q13258 1-359): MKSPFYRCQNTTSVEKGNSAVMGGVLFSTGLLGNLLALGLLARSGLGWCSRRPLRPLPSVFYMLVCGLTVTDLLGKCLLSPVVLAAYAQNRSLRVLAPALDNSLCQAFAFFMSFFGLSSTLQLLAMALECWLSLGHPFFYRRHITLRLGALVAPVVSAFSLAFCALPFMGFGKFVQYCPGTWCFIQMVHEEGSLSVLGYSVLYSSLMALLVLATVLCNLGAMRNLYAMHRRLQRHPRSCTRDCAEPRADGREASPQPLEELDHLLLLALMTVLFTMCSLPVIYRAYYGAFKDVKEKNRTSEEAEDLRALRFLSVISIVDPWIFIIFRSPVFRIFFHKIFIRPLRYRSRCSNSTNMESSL
Summary of the method: as §4

T3 sequence (P43116 whole entry): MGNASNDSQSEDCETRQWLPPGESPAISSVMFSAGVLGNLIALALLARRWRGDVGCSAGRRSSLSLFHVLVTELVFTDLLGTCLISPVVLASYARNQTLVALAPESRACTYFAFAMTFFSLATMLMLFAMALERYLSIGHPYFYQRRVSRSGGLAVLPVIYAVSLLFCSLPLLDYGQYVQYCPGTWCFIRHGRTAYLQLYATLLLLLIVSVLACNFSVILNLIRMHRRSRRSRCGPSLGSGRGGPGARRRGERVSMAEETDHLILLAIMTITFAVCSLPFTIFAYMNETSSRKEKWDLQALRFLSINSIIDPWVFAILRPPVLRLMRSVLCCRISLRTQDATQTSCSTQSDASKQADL
T4 sequence (P43088 whole entry): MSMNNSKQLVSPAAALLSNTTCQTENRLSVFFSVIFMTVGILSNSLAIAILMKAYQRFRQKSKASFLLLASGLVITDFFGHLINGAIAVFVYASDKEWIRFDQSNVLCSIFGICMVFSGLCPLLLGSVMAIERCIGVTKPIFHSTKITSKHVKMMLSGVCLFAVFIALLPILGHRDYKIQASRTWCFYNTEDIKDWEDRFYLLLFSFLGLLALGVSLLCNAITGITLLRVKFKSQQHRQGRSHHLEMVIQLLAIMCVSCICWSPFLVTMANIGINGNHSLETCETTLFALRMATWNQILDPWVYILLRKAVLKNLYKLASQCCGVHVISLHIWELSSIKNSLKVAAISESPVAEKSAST
T2 sequence (P43119 whole entry): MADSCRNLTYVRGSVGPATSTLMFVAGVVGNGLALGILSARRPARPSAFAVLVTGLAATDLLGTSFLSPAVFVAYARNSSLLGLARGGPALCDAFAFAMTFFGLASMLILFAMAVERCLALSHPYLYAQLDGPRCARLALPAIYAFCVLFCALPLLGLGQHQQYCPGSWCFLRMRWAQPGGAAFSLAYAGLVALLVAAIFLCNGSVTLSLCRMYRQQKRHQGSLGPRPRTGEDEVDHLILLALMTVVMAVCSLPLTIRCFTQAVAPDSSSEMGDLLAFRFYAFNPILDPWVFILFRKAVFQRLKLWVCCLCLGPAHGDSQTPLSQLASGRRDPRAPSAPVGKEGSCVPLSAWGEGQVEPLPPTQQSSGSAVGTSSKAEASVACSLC

Structure (SMILES) | Kb [1] | Kb [2] | Kb [3] | Kb [4] | Kb [5]
Cc1nn(Cc2cc(Cl)ccc2OCC(C)C)c2ccc(C(=O)O)cc12 [Example 24, 1-(5-Chloro-2-Isobutoxy-Benzyl)-3-Methyl-1H-Indazole-5-Carboxylic Acid] | 2440 nM | 1430 nM | 4500 nM | 40 nM | 160 nM
CC(C)COc1ccc(Cl)cc1Cn1cc2cc(C(=O)O)ccc2n1 [Example 16, 2-(5-Chloro-2-Isobutoxy-Benzyl)-2H-Indazole-5-Carboxylic Acid] | 4000 nM | 6600 nM | ≥ 10000 nM | 3000 nM | 1500 nM
O=C(O)c1cccc2nn(Cc3cc(Cl)ccc3OCC3CC3)cc12 [Example 35, 2-(5-Chloro-2-Cyclopropylmethoxy-Benzyl)-2H-Indazole-4-Carboxylic Acid] | ≥ 10000 nM | ≥ 10000 nM | ≥ 10000 nM | 4300 nM | 1900 nM
CCC(CC)COc1ccc(OC(F)(F)F)cc1Cn1cc(C)c2cc(C(=O)O)ccc21 [Example 77, 1-[2-(2-Ethyl-Butoxy)-5-Trifluoromethoxy-Benzyl]-3-Methyl-1H-Indole-5-Carboxylic Acid] | ≥ 10000 nM | ≥ 10000 nM | 9200 nM | 9600 nM | 3600 nM
CCC(CC)COc1ccc(Br)cc1Cn1c(C)cc2cc(C(=O)O)ccc21 [Example 68, 1-[5-Bromo-2-(2-Ethyl-Butoxy)-Benzyl]-2-Methyl-1H-Indole-5-Carboxylic Acid] | ≥ 10000 nM | 6600 nM | ≥ 10000 nM | ≥ 10000 nM | ≥ 10000 nM
CCC(CC)COc1ccc(Br)cc1Cn1cnc2cc(C(=O)O)ccc21 [Example 78, 1-[5-Bromo-2-(2-Ethyl-Butoxy)-Benzyl]-1H-Benzoimidazole-5-Carboxylic Acid] | ≥ 10000 nM | 3000 nM | ≥ 10000 nM | 800 nM | 3800 nM
CCC(CC)COc1ccc(Cl)cc1Cn1ncc2ccc(C(=O)O)cc21 [Example 46, 1-[5-Chloro-2-(2-Ethyl-Butoxy)-Benzyl]-1H-Indazole-6-Carboxylic Acid] | ≥ 10000 nM | ≥ 10000 nM | ≥ 10000 nM | ≥ 10000 nM | 2500 nM
O=C(O)c1ccc2c(cnn2Cc2cc(C(F)(F)F)ccc2OCc2ccc(Cl)cc2)c1 [Example 32, 1-[2-(4-Chloro-Benzyloxy)-5-Trifluoromethyl-Benzyl]-1H-Indazole-5-Carboxylic Acid] | ≥ 10000 nM | 7400 nM | ≥ 10000 nM | 50 nM | 1700 nM
Cc1nn(Cc2cc(Cl)ccc2OCC(C)C)c2ncc(C(=O)O)cc12 [Example 61, 1-(5-Chloro-2-Isobutoxy-Benzyl)-3-Methyl-1H-Pyrazolo[3,4-B]Pyridine-5-Carboxylic Acid] | ≥ 10000 nM | 1750 nM | ≥ 10000 nM | 1500 nM | 740 nM
CC(C)COc1ccc(OC(F)(F)F)cc1Cn1ccc2cc(C(=O)O)ccc21 [Example 71, 1-(2-Isobutoxy-5-Trifluoromethoxy-Benzyl)-1H-Indole-5-Carboxylic Acid] | ≥ 10000 nM | ≥ 10000 nM | ≥ 10000 nM | 120 nM | ≥ 10000 nM
CCC(CC)COc1ccc(Cl)cc1Cn1ncc2cc(C(=O)O)ccc21 [Example 2, 1-[5-Chloro-2-(2-Ethyl-Butoxy)-Benzyl]-1H-Indazole-5-Carboxylic ACID] | 1100 nM | 1100 nM | 2900 nM | 160 nM | 1300 nM
CC(C)COc1ccc(Cl)cc1Cn1ncc2c(C(=O)O)cccc21 [Example 36, 1-(5-Chloro-2-Isobutoxy-Benzyl)-1H-Indazole-4-Carboxylic Acid] | 4000 nM | 200 nM | 2900 nM | 580 nM | 1100 nM
CCC(CC)COc1ccc(Cl)cc1Cn1nc(C)c2cc(C(=O)O)cnc21 [Example 60, 1-[5-Chloro-2-(2-Ethyl-Butoxy)-Benzyl]-3-Methyl-1H-Pyrazolo[3,4-B]Pyridine-5-Carboxylic Acid] | 5100 nM | 630 nM | 7500 nM | 2500 nM | 580 nM
CC(C)(C)COc1ccc(Br)cc1Cn1ncc2cc(C(=O)O)ccc21 [Example 52, 1-[5-Bromo-2-(2,2-Dimethyl-Propoxy)-Benzyl]-1H-Indazole-5-Carboxylic Acid] | 2100 nM | ≥ 10000 nM | 3800 nM | 11 nM | 2300 nM
O=C(O)c1ccc2c(cnn2Cc2cc(Cl)ccc2OCC2CC2)c1 [Example 11, 1-(5-Chloro-2-Cyclopropylmethoxy-Benzyl)-1H-Indazole-5-Carboxylic Acid] | 6500 nM | 5500 nM | 2000 nM | 120 nM | 900 nM
